Our source for the inhibition values is patent US20090075951A1, “Methods and Reagents for the Treatment of Inflammatory Disorders” (CombinatoRx, Inc., priority 2003, published 2009).

Read-outs that look alike come from different tables or passages of the source.

Assay [1] has as its system TNFα secretion from PMA/ionomycin stimulated white blood cells from human buffy coat. In words: TNFα secretion assay, PMA/ionomycin stimulation. To be noted: for inhibition at 0.03 µM: read-out: TNFα PI percent inhibition, 0.03 μM; for inhibition at 0.06 µM: read-out: TNFα PI percent inhibition, 0.06 μM.
Method: (§1) Various concentrations of each test compound were added at the time of stimulation. […] After the plate was washed with 0.1% Tween 20/PBS, an HRP-luminescent substrate was added to each well and light intensity measured using a LJL Analyst plate luminometer.
Assay [2] deals with TNFα secretion from LPS stimulated white blood cells from human buffy coat. In words: TNFα secretion assay, LPS stimulation. To be noted: Homo sapiens; for inhibition at 0.03 µM: read-out: TNFα LPS percent inhibition, 0.03 μM; for inhibition at 0.06 µM: read-out: TNFα LPS percent inhibition, 0.06 μM.
Method: as §1
For the next assay, the system named is cytokine secretion. In words: Suppression of cytokine secretion in vitro by individual tricyclic compounds.
Where [3] appears, read: read-out: TNFα PI percent inhibition, […].
Where [4] appears, read: read-out: TNFα LPS percent inhibition, […].
[5] abbreviates: read-out: IL-1β LPS percent inhibition.
Setting [6] is: read-out: IL-2 PI percent inhibition.

Method for cytokine secretion: Individual tricyclic compounds were tested for their ability to suppress cytokine secretion in vitro.

Turning to `CN(C)CCCN1c2ccccc2CCc2ccccc21` [Imipramine, imipramine], the inhibition at 0.03 µM (in assay [1]; in assay [2]; with cytokine secretion (setting [5]); with cytokine secretion (setting [6])) was 0% in each case. The inhibition at 0.06 µM in assay [1] is 0%; in assay [2] it was 10%; in the assay with cytokine secretion (setting [5]), 0%; in the assay with cytokine secretion (setting [6]) it was 19%. Besides, the inhibition at 63 µM in assay [1] (setting [3]) was 92%; in assay [2] (setting [4]), 3%; with cytokine secretion (setting [5]), 13%; in the assay with cytokine secretion (setting [6]), 85%.
On to `CC(CN(C)C)CN1c2ccccc2CCc2ccccc21` (centres unmarked) [Trimipramine, trimipramine], for which the inhibition at 0.01 µM in assay [1] (read-out: TNFα PI percent inhibition, 0.01 μM) is 0%; in assay [2] (read-out: TNFα LPS percent inhibition, 0.01 μM), 0%; with cytokine secretion (setting [5]) it was 0%; in the assay on cytokine secretion (setting [6]), 0%. Besides, the inhibition at 0.03 µM in assay [1] was determined as 0%; in assay [2], 1%; with cytokine secretion (setting [5]), 0%; in the assay with cytokine secretion (setting [6]) it was 5%. Moreover, the inhibition at 0.06 µM is 0% in assay [1], 3% in assay [2], 0% in the assay on cytokine secretion (setting [5]) and 6% in the assay on cytokine secretion (setting [6]). Further, the inhibition at 29 µM in assay [1] (setting [3]) came out at 77%; in assay [2] (setting [4]) it was 11%; with cytokine secretion (setting [5]), 2%; with cytokine secretion (setting [6]), 36%.
As to `CN(C)CCC=C1c2ccccc2CCc2ccccc21` [Amitriptyline, amitriptyline], the inhibition at 0.03 µM (in assay [1]; in assay [2]; with cytokine secretion (setting [5]); with cytokine secretion (setting [6])) was 0% throughout. Besides, the inhibition at 0.06 µM in assay [1] worked out at 0%; in assay [2] it was 0%; in the assay with cytokine secretion (setting [5]) it was 0%; in the assay with cytokine secretion (setting [6]), 2%. Moreover, the inhibition at 0.5 µM came out at 0% in assay [1] (read-out: TNFα PI percent inhibition, 0.50 μM); 0% in assay [2] (read-out: TNFα LPS percent inhibition, 0.50 μM); 0% in the assay on cytokine secretion (setting [5]); 0% with cytokine secretion (setting [6]). The inhibition at 1 µM in assay [1] (read-out: TNFα PI percent inhibition, 1.00 μM) turned out to be 0%; in assay [2] (read-out: TNFα LPS percent inhibition, 1.00 μM), 0%; in the assay with cytokine secretion (setting [5]), 0%; in the assay on cytokine secretion (setting [6]), 0%. Also, the inhibition at 2 µM was found to be 0% in assay [1] (read-out: TNFα PI percent inhibition, 2.00 μM); 0% in assay [2] (read-out: TNFα LPS percent inhibition, 2.00 μM); 0% in the assay on cytokine secretion (setting [5]); 0% with cytokine secretion (setting [6]). Also, the inhibition at 4 µM was determined as 5% in assay [1] (read-out: TNFα PI percent inhibition, 4.00 μM); 0% in assay [2] (read-out: TNFα LPS percent inhibition, 4.00 μM); 11% in the assay on cytokine secretion (setting [5]); 4% with cytokine secretion (setting [6]). The inhibition at 8 µM in assay [1] (read-out: TNFα PI percent inhibition, 8.00 μM) stood at 21%; in assay [2] (read-out: TNFα LPS percent inhibition, 8.00 μM) it was 0%; in the assay with cytokine secretion (setting [5]), 7%; in the assay on cytokine secretion (setting [6]) it was 7%. For the same compound, the inhibition at 16 µM in assay [1] (setting [3]) was determined as 35%; in assay [2] (setting [4]) it was 0%; in the assay with cytokine secretion (setting [5]), 0%; in the assay on cytokine secretion (setting [6]), 33%. Moreover, the inhibition at 32 µM was 66% in assay [1] (setting [3]), 18% in assay [2] (setting [4]), 0% in the assay with cytokine secretion (setting [5]) and 62% in the assay with cytokine secretion (setting [6]). Also, the inhibition at 64 µM turned out to be 81% in assay [1] (setting [3]), 45% in assay [2] (setting [4]), 0% in the assay with cytokine secretion (setting [5]) and 82% in the assay with cytokine secretion (setting [6]).
